Data taken from patent US5734052A (Merrell Pharmaceuticals Inc., priority 1995, dated 1998).
Each block holds one compound with its values, some of them ahead of it.

Key:
adenosine A-2 receptors = target: T1, adenosine A-2 receptors (Rattus norvegicus, UniProt P30543); test: Affinity for brain adenosine A-2 receptors ([3H]NECA competition, striatal membranes); assay type: binding; settings: rat brain striatum membranes, 1 μM CHA in tube addition, 25° C., 60 minutes, read-out: A2 Ki
T1 construct: tissue Charles River; host or cells: striatal membranes of young male rats (C-D strain)
Method: Young male rats (C-D strain), obtained from Charles River, are killed by decapitation and the brain was removed. Membranes for ligand binding are isolated from rat brain striatum. The tissue is homogenized in 20 vol ice-cold 50 mM Tris-HCl buffer (pH 7.7) using a polytron (setting for 6 to 20 seconds). The homogenate is centrifuged at 50,000×g for 10 minutes at 4° C. The pellet is again homogenized in a polytron in 20 vol of buffer, and centrifuged as before. The pellet is finally resuspended in 40 vol of 50 mM Tris-HCl (pH 7.7) per gram of original wet weight of tissue.
Incubations are carried out at 25° C. for 60 minutes. Each tube is filtered through GF/B glass fiber filters using a vacuum. The filters are rinsed two times with 5 ml of the ice-cold buffer. […] The filters are counted by liquid scintillation spectrometry.
Specific binding of [3H]NECA is measured as the excess over blanks run in the presence of 100 μM 2-chloro-adenosine. Total membrane-bound radioactivity is about 2.5% of that added to the test tubes. […] Specific binding to membranes is about 50% of the total bound.

Adenosine A-1 receptor [1] = target: T2, Adenosine A-1 receptor (Rattus norvegicus, UniProt P25099); test: Affinity for brain adenosine A-1 receptor binding sites ([3H]cyclohexyladenosine competition); settings: ratio of A2 Ki to A1 Ki
T2 sequence (P25099 1-326): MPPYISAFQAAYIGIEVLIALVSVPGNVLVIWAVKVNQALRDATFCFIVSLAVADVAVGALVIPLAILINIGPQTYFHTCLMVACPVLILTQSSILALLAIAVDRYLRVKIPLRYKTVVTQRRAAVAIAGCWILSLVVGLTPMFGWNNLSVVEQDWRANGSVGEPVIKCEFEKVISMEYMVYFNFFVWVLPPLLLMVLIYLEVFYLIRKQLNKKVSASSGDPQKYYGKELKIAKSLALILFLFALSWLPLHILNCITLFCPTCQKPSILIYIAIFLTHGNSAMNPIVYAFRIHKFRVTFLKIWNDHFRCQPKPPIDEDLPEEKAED

Adenosine A-1 receptor [2] = target: T2, Adenosine A-1 receptor
adenosine receptor = settings: in vivo; cited from earlier work
A-1 receptors = settings: in vitro, A-1 vs A-2; cited from earlier work

T1 sequence (P30543 whole entry): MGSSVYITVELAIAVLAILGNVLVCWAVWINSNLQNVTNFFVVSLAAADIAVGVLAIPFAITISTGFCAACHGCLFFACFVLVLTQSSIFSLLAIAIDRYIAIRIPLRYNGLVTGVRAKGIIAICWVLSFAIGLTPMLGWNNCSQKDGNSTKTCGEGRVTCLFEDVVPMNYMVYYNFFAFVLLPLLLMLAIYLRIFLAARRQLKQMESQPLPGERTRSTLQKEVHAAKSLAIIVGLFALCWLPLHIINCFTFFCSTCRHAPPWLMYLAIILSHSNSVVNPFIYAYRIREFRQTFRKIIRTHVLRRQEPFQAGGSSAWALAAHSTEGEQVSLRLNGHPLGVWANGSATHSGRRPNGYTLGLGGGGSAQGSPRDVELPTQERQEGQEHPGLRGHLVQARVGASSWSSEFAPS

Ki (adenosine A-2 receptors): 2.72 µM
SMILES: CCCn1c(=O)c2[nH]c([C@@H]3CCC[C@H]3c3ccccc3)nc2n(CCC)c1=O (relative stereo) [8-(trans-2-Phenylcyclopentyl)-1,3-dipropyl-3,9-dihydropurine-2,6-dione]

Ki (adenosine A-2 receptors): 10.3 µM
SMILES: CCCn1c(=O)c2nc(C3CCc4ccccc4C3)[nH]c2n(CCC)c1=O (stereo not shown) [1,3-Dipropyl-8-(1,2,3,4-tetrahydronaphthalen-2-yl)-3,9-dihydropurine-2,6-dione]

A2/A1 (Adenosine A-1 receptor [1]): 18 | Ki (Adenosine A-1 receptor [2]): 0.0943 µM | Ki (adenosine A-2 receptors): 1.74 µM
SMILES: CCCn1c(=O)c2nc(CC(C)c3ccccc3)[nH]c2n(CCC)c1=O (stereo not shown) [8-(2-Phenylpropyl)-1,3-dipropyl-3,9-dihydropurine-2,6-dione]

Continued, compound first:

SMILES: CCCn1c(=O)c2[nH]c(-c3ccc(OCC(=O)NCCN)cc3)nc2n(CCC)c1=O [XAC]
potency in antagonizing effects of adenosine analogs on heart rate vs blood pressure (adenosine receptor): much more potent in antagonizing the effects of adenosine analogs on heart rate than on blood pressure

SMILES: CCCn1c(=O)c2[nH]c(-c3ccc(OCC(=O)O)cc3)nc2n(CCC)c1=O [XCC]
adenosine receptor selectivity (A-1 receptors): adenosine receptor nonselective
